Measurements reported in ChEMBL document CHEMBL2151027, “BACE Inhibitors: Potential Treatment of Alzheimer's Disease, Dementia, and Related Neurodegenerative Disorders (B): 3-Amino-4-fluoro-1H-isoindol Derivatives: Patent Highlight” (ACS Med Chem Lett, 2012).

Key:
Beta-secretase 1 [1] = molecular target: T1, Beta-secretase 1 (Homo sapiens, UniProt P56817); test: Inhibition of BACE1 by secreted AAPbeta release assay
Beta-secretase 1 [2] = molecular target: T1, Beta-secretase 1; test: Inhibition of BACE1 by diluted TR-FRET assay

T1 sequence (P56817 whole entry): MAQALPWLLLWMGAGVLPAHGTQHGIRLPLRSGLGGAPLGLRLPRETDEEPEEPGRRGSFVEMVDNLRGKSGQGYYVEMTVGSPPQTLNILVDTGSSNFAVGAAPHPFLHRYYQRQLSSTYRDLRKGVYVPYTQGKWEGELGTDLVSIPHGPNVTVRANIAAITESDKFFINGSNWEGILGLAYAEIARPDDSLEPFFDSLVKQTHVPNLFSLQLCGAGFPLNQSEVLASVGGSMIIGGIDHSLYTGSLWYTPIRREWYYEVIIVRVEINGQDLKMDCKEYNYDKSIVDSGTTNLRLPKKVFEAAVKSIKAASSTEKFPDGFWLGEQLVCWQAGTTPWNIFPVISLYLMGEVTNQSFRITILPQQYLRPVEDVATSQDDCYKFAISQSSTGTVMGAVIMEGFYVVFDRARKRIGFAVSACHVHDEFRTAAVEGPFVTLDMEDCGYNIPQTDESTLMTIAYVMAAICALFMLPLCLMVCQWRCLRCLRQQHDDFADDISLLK

IC50 (Beta-secretase 1 [1]) | IC50 (Beta-secretase 1 [2]) | SMILES
2 nM | 8 nM | CCn1cc([C@]2(c3cccc(-c4cncc(C#N)c4)c3)N=C(N)c3c(F)cccc32)cc(C)c1=O
4 nM | 6 nM | CC#Cc1cncc(-c2cccc([C@@]3(c4cc(C(F)F)c(=O)n(CC)c4)N=C(N)c4c(F)cccc43)c2)c1
2 nM | – | CC#Cc1ccnc(-c2cccc([C@@]3(c4cc(C)c(=O)n(CC)c4)N=C(N)c4c(F)cccc43)c2)c1
